Assays:
KG-1 = assay: Antiproliferative activity against human KG-1 cells assessed as reduction in cell viability incubated for 72 hrs by cell titer glo assay; format: functional, cell-based; details: KG-1, 72 h
THLE-2 = assay: Cytotoxicity against human THLE-2 cells assessed as cell viability incubated for 72 hrs by cell titer glo assay; format: cell-based; details: THLE-2, 72 h
Kasumi 1 = assay: Antiproliferative activity against human Kasumi 1 cells assessed as reduction in cell viability incubated for 72 hrs by cell titer glo assay; format: functional, cell-based; details: Kasumi 1, 72 h
MOLM-13 = assay: Antiproliferative activity against human MOLM-13 cells assessed as reduction in cell viability incubated for 72 hrs by cell titer glo assay; format: functional, cell-based; details: MOLM-13, 72 h
OCI-AML2 = assay: Antiproliferative activity against human OCI-AML2 cells assessed as reduction in cell viability incubated for 72 hrs by cell titer glo assay; format: functional, cell-based; details: OCI-AML2, 72 h
NB-4 = assay: Antiproliferative activity against human NB4 cells assessed as reduction in cell viability incubated for 72 hrs by cell titer glo assay; format: functional, cell-based; details: NB-4, 72 h
OCI-AML-3 = assay: Antiproliferative activity against human OCI-AML3 cells assessed as reduction in cell viability incubated for 72 hrs by cell titer glo assay; format: functional, cell-based; details: OCI-AML-3, 72 h
U-937 = assay: Antiproliferative activity against human U937 cells assessed as reduction in cell viability incubated for 72 hrs by cell titer glo assay; format: functional, cell-based; details: U-937, 72 h
KG-1a = assay: Antiproliferative activity against human KG-1a cells assessed as reduction in cell viability incubated for 72 hrs by cell titer glo assay; format: functional, cell-based
MV4-11 = assay: Antiproliferative activity against human MV4-11 cells assessed as reduction in cell viability incubated for 72 hrs by cell titer glo assay; format: functional, cell-based; details: MV4-11, 72 h
HL-60 = assay: Antiproliferative activity against human HL-60 cells assessed as reduction in cell viability incubated for 72 hrs by cell titer glo assay; format: functional, cell-based; details: HL-60, 72 h

Row | IC50 (MOLM-13) | IC50 (OCI-AML2) | IC50 (OCI-AML-3) | IC50 (U-937) | IC50 (MV4-11) | IC50 (HL-60) | SMILES | IC50 (KG-1) | IC50 (THLE-2) | IC50 (Kasumi 1) | IC50 (NB-4) | IC50 (KG-1a)
1 | – | – | – | – | – | – | O=C1CCC(N2Cc3cc(CNC(=O)c4ccccc4)ccc3C2=O)C(=O)N1 (stereo not drawn) | > 10000 nM | > 10000 nM | – | – | –
2 | 8 nM | 21 nM | 73 nM | 11 nM | 5 nM | 3 nM | Cc1ccc(NC(=O)NCc2ccc3c(c2)CN(C2CCC(=O)NC2=O)C3=O)cc1Cl (stereo not drawn) | 7 nM | 11 nM | 10 nM | 2 nM | 8 nM

Source: ChEMBL document CHEMBL4706692, “CC-90009: A Cereblon E3 Ligase Modulating Drug That Promotes Selective Degradation of GSPT1 for the Treatment of Acute Myeloid Leukemia” (J Med Chem, 2021)
